The source of these data is PMC9919513, “A Practical Approach to Bicyclic Carbamoyl Pyridones with Application to the Synthesis of HIV-1 Integrase Strand Transfer Inhibitors” (Molecules, 2023).

Where two headings read alike, the source gives them in different places. Where only a bound is given, the exact number is not on record here.

Data set [1] deals with HIV-1 vectors that carry WT IN. Description: Single-round HIV-1 replication antiviral assay, wild-type IN. It is filed as cell-based. The note with it: for Ratio of the antiviral potencies after and before hydrogenation (WT): EC50 of saturated 7 over EC50 of unsaturated 6, WT IN; for EC50: Human immunodeficiency virus 1, HOS, 48 h, read-out: EC50, antiviral potency, WT IN, VSV-g-pseudotyped HIV-1 luciferase vector with WT IN, HOS cells, 48 h. Here is the method: The bicyclic metal chelating carbamoyl pyridone moiety is common to second-generation tricyclic INSTIs (3, 4, and 5, Figure 1). Analogs of the current study are simplified analogs that lack a third ring. […] The halogen substitution pattern of the benzylamide moiety can affect inhibitory potencies of INSTIs. We determined the antiviral potencies of our compounds in single round HIV-1 replication assays using viral constructs with wild-type IN [31]. Cytotoxicities were determined as previously described. […] In general, the potencies of bicyclic analogs 6 having an unsaturated bond at the C4 position were insensitive to differences in N-methyl substituents. […] Analogs 6g and 6h represent simplified analogs of DTG (3) and CAB (5), respectively, in which the third ring (C-ring) is opened and having doble bond in B-ring, but lacking α-methyl stereochemistry.
Human embryonic kidney cell culture cell line 293 was acquired from the American Type Culture Collection (ATCC). The human osteosarcoma cell line, HOS, was obtained from Dr. Richard Schwartz (Michigan State University, East Lansing, MI, USA) and grown in Dulbecco’s modified Eagle’s medium (Invitrogen, Carlsbad, CA, USA) supplemented with 5% (v/v) fetal bovine serum, 5% newborn calf serum, and penicillin (50 units/mL) plus streptomycin (50 µg/mL; Quality Biological, Gaithersburg, MD, USA). The transfection vector, pNLNgoMIVR-ΔLUC was made from pNLNgoMIVR-ΔEnv.HSA by removing the HSA reporter gene and replacing it with a luciferase reporter gene between the NotI and XhoI restriction sites. To produce the new IN mutant S230N used in this study, the IN open reading frame was removed from pNLNgoMIVR-ΔENV.LUC by digestion with KpnI and SalI, and the resulting fragment was inserted between the KpnI and SalI sites of pBluescript KS+. Using that construct as the wild-type template, we prepared the following HIV-1 IN mutant S230N using the QuikChange II XL site-directed mutagenesis kit (Agilent Technologies, Santa Clara, CA, USA) protocol. The following sense oligonucleotides were used with matching cognate antisense oligonucleotides (not shown) (Integrated DNA Technologies, Coralville, IA, USA) in the mutagenesis: S230N 5′-[…]-3′. The DNA sequence of the IN mutant S230N construct was verified independently by DNA sequence determination. The mutated IN coding sequences from pBluescript KS+ were then subcloned into pNLNgoMIVR-ΔEnv.LUC (between the KpnI and SalI sites) to produce mutant HIV-1 constructs, which were also checked by DNA sequencing. […]. On the day prior to transfection, 293 cells were plated on 100 mm diameter dishes at a density of 1.5 × 10^6 cells per plate. Next, 293 cells were transfected with 16 µg of pNLNgoMIVR^-ΔLUC and 4 µg of pHCMV-g (obtained from Dr. Jane Burns, University of California, San Diego) using the calcium phosphate method. At approximately 6 h after the calcium phosphate precipitate was added, 293 cells were washed twice with phosphate-buffered saline (PBS) and incubated with fresh media for 48 h. The virus-containing supernatants were then harvested, clarified by low-speed centrifugation, filtrated, and diluted for preparation in antiviral infection assays. On the day prior to the screen, HOS cells were seeded in a 96-well luminescence cell culture plate at a density of 4000 cells in 100 µL per well. On the day of the screen for cellular cytotoxicity determination, cells were treated with compounds from a concentration range of 250 µM to 0.05 µM and then incubated at 37 °C for 48 h. On the day of the screen for antiviral activity infection assays, cells were treated with compounds from a concentration range of 5 µM to 0.0001 µM using 11 serial dilutions and then incubated at 37 °C for 3 h. After compound incorporation and activation in the cell, 100 µL of virus-stock (WT or mutant) diluted to achieve a luciferase signal between 0.2 and 1.5 Relative Luciferase Units (RLUs) was added to each well and further incubated at 37 °C for 48 h. […]

Data set [2] deals with HIV-1 vectors bearing the S230N IN mutant. Description: Single-round HIV-1 replication antiviral assay, S230N IN mutant. The class given is cell-based. The source says:
To further evaluate the antiviral activities of select compounds, we determined their EC50 values against the IN mutant S230N, which has been selected in vitro against an early Merck INSTI L810,830, a prototype for naphthyridine analogs.
(§1) Human embryonic kidney cell culture cell line 293 was acquired from the American Type Culture Collection (ATCC). The human osteosarcoma cell line, HOS, was obtained from Dr. Richard Schwartz (Michigan State University, East Lansing, MI, USA) and grown in Dulbecco’s modified Eagle’s medium (Invitrogen, Carlsbad, CA, USA) supplemented with 5% (v/v) fetal bovine serum, 5% newborn calf serum, and penicillin (50 units/mL) plus streptomycin (50 µg/mL; Quality Biological, Gaithersburg, MD, USA). The transfection vector, pNLNgoMIVR-ΔLUC was made from pNLNgoMIVR-ΔEnv.HSA by removing the HSA reporter gene and replacing it with a luciferase reporter gene between the NotI and XhoI restriction sites. To produce the new IN mutant S230N used in this study, the IN open reading frame was removed from pNLNgoMIVR-ΔENV.LUC by digestion with KpnI and SalI, and the resulting fragment was inserted between the KpnI and SalI sites of pBluescript KS+. Using that construct as the wild-type template, we prepared the following HIV-1 IN mutant S230N using the QuikChange II XL site-directed mutagenesis kit (Agilent Technologies, Santa Clara, CA, USA) protocol. The following sense oligonucleotides were used with matching cognate antisense oligonucleotides (not shown) (Integrated DNA Technologies, Coralville, IA, USA) in the mutagenesis: S230N 5′-[…]-3′. The DNA sequence of the IN mutant S230N construct was verified independently by DNA sequence determination. The mutated IN coding sequences from pBluescript KS+ were then subcloned into pNLNgoMIVR-ΔEnv.LUC (between the KpnI and SalI sites) to produce mutant HIV-1 constructs, which were also checked by DNA sequencing. […]. On the day prior to transfection, 293 cells were plated on 100 mm diameter dishes at a density of 1.5 × 10^6 cells per plate. Next, 293 cells were transfected with 16 µg of pNLNgoMIVR^-ΔLUC and 4 µg of pHCMV-g (obtained from Dr. Jane Burns, University of California, San Diego) using the calcium phosphate method. At approximately 6 h after the calcium phosphate precipitate was added, 293 cells were washed twice with phosphate-buffered saline (PBS) and incubated with fresh media for 48 h. The virus-containing supernatants were then harvested, clarified by low-speed centrifugation, filtrated, and diluted for preparation in antiviral infection assays. On the day prior to the screen, HOS cells were seeded in a 96-well luminescence cell culture plate at a density of 4000 cells in 100 µL per well. On the day of the screen for cellular cytotoxicity determination, cells were treated with compounds from a concentration range of 250 µM to 0.05 µM and then incubated at 37 °C for 48 h. On the day of the screen for antiviral activity infection assays, cells were treated with compounds from a concentration range of 5 µM to 0.0001 µM using 11 serial dilutions and then incubated at 37 °C for 3 h. After compound incorporation and activation in the cell, 100 µL of virus-stock (WT or mutant) diluted to achieve a luciferase signal between 0.2 and 1.5 Relative Luciferase Units (RLUs) was added to each well and further incubated at 37 °C for 48 h. Cellular cytotoxicity was measured by using the ATP Lite Luminescence detection system and monitored by adding 50 µL of cell lysis buffer from the Luminescence ATP detection assay to each well followed by mixing at 700 rpm at room temperature for 5 min using a compact thermomixer. […]

The next data set in a line: in vitro. It is filed as cell-based. The conditions noted are these: human, HOS cells, 48 h; read-out: CC50, cytotoxic concentration resulting in 50% reduction in the level of ATP. Here is the method: as §1, with “thermomixer. After addition of 50 µL of reconstituted Luminescence ATP detection assay reagent to all wells except for the negative control/background wells, the plates were mixed at 700 rpm at room temperature for 5 min using a compact thermomixer, incubated at room temperature for 20 min to allow time for signal development, and finally, cytotoxicity was determined using the microplate reader. Infectivity was measured by using the Steady-lite plus luminescence reporter gene assay system (PerkinElmer, Waltham, MA, USA).” for “thermomixer.”

The subject of data set [3] is HIV-1 vectors bearing the S230N IN mutant. The conditions noted are these: single round infection assays, read-out: EC50 against the S230N IN mutant; cited from earlier work.

As to `O=C(NCc1ccc(F)cc1F)c1cn2c(c(O)c1=O)C(=O)N(CCCCCO)CC2` [Compound 7d, N-(2,4-Difluorobenzyl)-9-hydroxy-2-(5-hydroxypentyl)-1,8-dioxo-1,3,4,8-tetrahydro-2H-pyrido [1,2-a]pyrazine-7-carboxamide], the melting point (commonly the temperature, or range, at which the solid turns liquid) was in the range of 201 to 207 °C. For the same compound, in data set [1], the “Ratio of the antiviral potencies after and before hydrogenation (WT)” value (“Ratio of the antiviral potencies … (WT)” below) amounted to 5.0; the half-maximal effective concentration (EC50) (as a rule, the concentration at which the effect is half-maximal) was 54.5 ± 3 nM. In data set [2] (EC50 of saturated 7 over EC50 of unsaturated 6, S230N IN), the “Ratio of the antiviral potencies after and before hydrogenation (S230N)” value is 6.29. Moreover, in data set [2] (Human immunodeficiency virus 1, HOS, 48 h, read-out: EC50, antiviral potency, S230N IN mutant), the EC50 came to 97 nM.

Take `COCCCN1CCn2cc(C(=O)NCc3ccc(F)cc3F)c(=O)c(O)c2C1=O` [Compound 7g, N-(2,4-Difluorobenzyl)-9-hydroxy-2-(3-methoxypropyl)-1,8-dioxo-1,3,4,8-tetrahydro-2H-pyrido [1,2-a]pyrazine-7-carboxamide]: the melting point was in the range of 250 to 252 °C. Moreover, in “in vitro”, the CC50 was more than 250000 nM. Moreover, in data set [1], the “Ratio of the antiviral potencies … (WT)” value was determined as 2.0; the EC50 came to 4 ± 0.7 nM.

For the compound `CC(C)CC(C)N1CCn2cc(C(=O)NCc3ccc(F)cc3F)c(=O)c(O)c2C1=O` (stereo not drawn) [Compound 7i, N-(2,4-Difluorobenzyl)-9-hydroxy-2-(4-methylpentan-2-yl)-1,8-dioxo-1,3,4,8-tetrahydro-2H-pyrido [1,2-a]pyrazine-7-carboxamide], the melting point was in the range of 190 to 192 °C. Also, the CC50 in “in vitro” is more than 250000 nM. For the same compound, in data set [1], the “Ratio of the antiviral potencies … (WT)” value was 1.4; the concentration for a half-maximal effect (EC50) amounted to 6 ± 1.2 nM.

In the case of `C[C@@H]1CCO[C@H]2Cn3cc(C(=O)NCc4ccc(F)cc4F)c(=O)c(O)c3C(=O)N12` [DTG, Dolutegravir, reference compound], the EC50 in data set [1] is approximately 2 nM; in data set [3], 7.9 ± 1.3 nM.
